For series [1], the system named is NCl/ADR-RES drug resistant human ovarian cancer cells. In words: In vitro cytotoxicity, MTT assay. Format: cell-based.
Method: On the fifth day cytotoxicity analysis was performed using an MTT assay. Data points represent average±SE (n=4).
On day 5 cytotoxicity analysis was measured using an MTT assay. Data points represent average±SE (n=4).
The cells were washed twice with ice cold phosphate buffer and replaced with fresh media. […] On day 5 cytotoxicity analysis was performed using an MTT assay.
On the fifth day cytotoxicity analysis was performed using the MTT assay.
The conditions of series [2]: cited from earlier work.
For series [3] the following is noted: cited from earlier work. The source holds these as a separate data set.
In series [4] the test system is MCF-7 human breast cancer cells. In words: In vitro cytotoxicity, MTT assay. Conditions: MCF7, 120 h, doxorubicin 15.62 nM to 1000 nM, MTT on day 5. Format: cell-based. As for the experimental part: […]. On day 5 cytotoxicity analysis was performed using an MTT assay. Data points represents average±SE (n=4). […].
The cells were washed twice with ice cold phosphate buffer and replaced with fresh media. Media was replaced for every 48 hours. At day 5, cytotoxicity analysis was performed using the MTT assay.
(Tetrazolium dyes change colour on reduction, which living cells bring about.)

Series [5] has as its system JC mouse breast cancer cells. The experiment in a line: In vivo biodistribution in allograft breast tumor mouse model. Conditions: i.v.; 3 hours after administration.
Method: The tumor model was developed by subcutaneous injection of JC mouse breast cancer cells. […] Animals were sacrificed 3 hours after treatment administration. Tumor and organs were collected. Doxorubicin concentration in tumors and organs were determined using a fluorescence based isocratic HPLC method. […] Female nude mice (Charles River Laboratories, Wilmington, Mass.) were used in the study. JC mouse breast cancer cells (1×10^7 cells) were suspended in PBS and injected subcutaneously. […] After 3 hours, the mice were sacrificed and organs (liver, heart, lungs, spleen, brain and tumor) were collected and homogenized in 2 mL deionized water using a tissue homogenizer. After addition of 100 ng of daunorubicin (internal standard), tissue homogenates were lyophilized.
Dry tissues were weighed and extracted with 5 mL of methanol/chloroform mixture (65:35) using a shaker for 5 hours in the dark at room temperature. The extract was centrifuged at 13,000 rpm for 10 minutes at 4° C. The supernatant was evaporated under nitrogen gas and reconstituted in methanol/acetonitrile (50:50).
The conditions of series [6]: comparison surfactant / block copolymers; cited from earlier work.

The source of these data is patent publication US8697098B2, “Polymer conjugated protein micelles” (South Dakota State University, priority 2011, dated 2014).

In brackets after ≈: the same amount, converted by molar mass. Like-named read-outs stand apart in the source and are kept apart here.

In series [1] (96 h), `COc1cc(/C=C/C(=O)/C=C(O)/C=C/c2ccc(O)c(OC)c2)ccc1O` [Curcumin] gave an IC50 of 104 nM. Besides, the “Log P” value in series [2] (Table 3, cargo compound itself) is 2.5; in series [2] it was 2.5. Moreover, the entries for the “solubility in water” value in series [3] (free compound) and in series [3] (free drug) were “practically insoluble in water” and 0.011 µg/mL (≈ 0.0299 µM), respectively.

In the case of `COc1cccc2c1C(=O)c1c(O)c3c(c(O)c1C2=O)C[C@@](O)(C(=O)CO)C[C@@H]3O[C@H]1C[C@H](N)[C@H](O)[C@H](C)O1` [Doxorubicin], the IC50 is 126 nM in series [1] (120 h, doxorubicin 31.25 nM to 1000 nM, MTT on day 5, read-out: IC50) and 148 nM in series [4]. The “doxorubicin accumulation in tumor” value in series [5] is on record as “no drug accumulation”. Further, the “solubility in water” value in series [3] (free compound) was “practically insoluble in water”; in series [3] (free drug) it was 0.015 µg/mL (≈ 0.0276 µM).

In the case of `CCN(CC)c1ccc2nc3c4ccccc4c(=O)cc-3oc2c1` [Nile red], the “Log P” value in series [2] (Table 3, cargo compound itself) was 5. Further, the “solubility in water” value in series [3] (free compound) is listed as “practically insoluble in water”.

Consider `CCCCCCCCCCCCOS(=O)(=O)[O-].[Na+]` [sodium dodecyl sulfate], for which, in series [6], the “critical micellar concentration (CMC)” value was “about 2.304 g/L”.

One may read the IC50 as the midpoint of a concentration-inhibition curve. A word on the Log P: it is the decadic logarithm of the partition coefficient of the neutral form, usually between octanol and water.
